tested on: HCT116 colorectal cancer cells; assay: Cisplatin sensitization assay (96 h cell viability MTS); format: cell-based; settings: compound and Cisplatin added simultaneously, Cisplatin sensitization value;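 note: Test-compound concentration that lowers the Cisplatin IC50 by a set fold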
Method in brief: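 Compound and cisplatin added together as a full matrix of 2-fold serial dilutions from a top final concentration of 10 μM; cells incubated 96 h at 37° C, 5% CO2. Viability then read by MTS after 1 h further incubation; sensitization value reported in μM bins.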

Row | Compound | Cisplatin Sensitization Assay
1 | Nc1nn2cc(F)cnc2c1C(=O)Nc1cncc(F)c1N1CCN2C(=O)CCC[C@H]2C1 [I-N-279, (S)-2-amino-6-fluoro-N-(5-fluoro-4-(6-oxohexahydro-1H-pyrido[1,2-a]pyrazin-2(6H)-yl)pyridin-3-yl)pyrazolo[1,5-a]pyrimidine-3-carboxamide] | +++ (Cisplatin sensitization value of <0.02 μM)
2 | Nc1nn2cc(F)cnc2c1C(=O)Nc1cncc(F)c1N1CCNCC1 [I-N-118, 2-amino-6-fluoro-N-(5-fluoro-4-(piperazin-1-yl)pyridin-3-yl)pyrazolo[1,5-a]pyrimidine-3-carboxamide] | +++ (Cisplatin sensitization value of <0.02 μM)
3 | Nc1nn2cc(F)cnc2c1C(=O)Nc1cncc(F)c1N1CCC(C(=O)N2CCC(N3CCC3)CC2)CC1 [I-G-68, 2-amino-N-(4-(4-(4-(azetidin-1-yl)piperidine-1-carbonyl)piperidin-1-yl)-5-fluoropyridin-3-yl)-6-fluoropyrazolo[1,5-a]pyrimidine-3-carboxamide] | +++ (Cisplatin sensitization value of <0.02 μM)
4 | CN1CCN(c2c(Cl)cncc2NC(=O)c2c(N)nn3cc(F)cnc23)CC1 [I-N-85, 2-amino-N-(5-chloro-4-(4-methylpiperazin-1-yl)pyridin-3-yl)-6-fluoropyrazolo[1,5-a]pyrimidine-3-carboxamide] | ++ (Cisplatin sensitization value>0.02 μM but <0.2 μM)
5 | Nc1nn2cc(F)cnc2c1C(=O)Nc1cncc(F)c1N1CCC(C(=O)N2CCC(N3CCCC3)CC2)CC1 [I-G-59, 2-amino-6-fluoro-N-(5-fluoro-4-(4-(4-(pyrrolidin-1-yl)piperidine-1-carbonyl)piperidin-1-yl)pyridin-3-yl)pyrazolo[1,5-a]pyrimidine-3-carboxamide] | +++ (Cisplatin sensitization value of <0.02 μM)
6 | CN1CCN(C(=O)C2CCN(c3c(F)cncc3NC(=O)c3c(N)nn4cc(F)cnc34)CC2)CC1 [I-G-4, 2-amino-6-fluoro-N-(5-fluoro-4-(4-(4-methylpiperazine-1-carbonyl)piperidin-1-yl)pyridin-3-yl)pyrazolo[1,5-a]pyrimidine-3-carboxamide] | +++ (Cisplatin sensitization value of <0.02 μM)
7 | CO[C@@H]1CCN(C(=O)C2CCN(c3ccncc3NC(=O)c3c(N)nn4cc(F)cnc34)CC2)C1 [I-G-93, (R)-2-amino-6-fluoro-N-(4-(4-(3-methoxypyrrolidine-1-carbonyl)piperidin-1-yl)pyridin-3-yl)pyrazolo[1,5-a]pyrimidine-3-carboxamide] | +++ (Cisplatin sensitization value of <0.02 μM)
8 | Nc1nn2cc(F)cnc2c1C(=O)Nc1cncc(F)c1N1CCC(C(=O)N2CCNC3CC32)CC1 (stereo not drawn) [I-G-62, N-(4-(4-(2,5-diazabicyclo[4.1.0]heptane-2-carbonyl)piperidin-1-yl)-5-fluoropyridin-3-yl)-2-amino-6-fluoropyrazolo[1,5-a]pyrimidine-3-carboxamide] | +++ (Cisplatin sensitization value of <0.02 μM)
9 | CN1CCN(CC2CCN(c3c(F)cncc3NC(=O)c3c(N)nn4cc(C5(C#N)CC5)cnc34)CC2)CC1 [I-N-192, 2-amino-6-(1-cyanocyclopropyl)-N-(5-fluoro-4-(4-((4-methylpiperazin-1-yl)methyl)piperidin-1-yl)pyridin-3-yl)pyrazolo[1,5-a]pyrimidine-3-carboxamide] | +++ (Cisplatin sensitization value of <0.02 μM)
10 | N#CCc1cnc2c(C(=O)Nc3cnccc3OCC3CC3)c(N)nn2c1 [I-O-32, 2-amino-6-(cyanomethyl)-N-(4-(cyclopropylmethoxy)pyridin-3-yl)pyrazolo[1,5-a]pyrimidine-3-carboxamide] | +++ (Cisplatin sensitization value of <0.02 μM)
11 | CCn1cncc1-c1ccncc1NC(=O)c1c(N)nn2cc(F)cnc12 [I-C-80, 2-amino-N-(4-(1-ethyl-1H-imidazol-5-yl)pyridin-3-yl)-6-fluoropyrazolo[1,5-a]pyrimidine-3-carboxamide] | +++ (Cisplatin sensitization value of <0.02 μM)
12 | CN(C)Cc1ccc(Oc2ccncc2NC(=O)c2c(N)nn3cc(F)cnc23)cn1 [I-O-3, 2-amino-N-(4-((6-((dimethylamino)methyl)pyridin-3-yl)oxy)pyridin-3-yl)-6-fluoropyrazolo[1,5-a]pyrimidine-3-carboxamide] | ++ (Cisplatin sensitization value>0.02 μM but <0.2 μM)
13 | CC(C)N1CCN(c2ccncc2NC(=O)c2c(N)nn3cc(F)cnc23)CC1 [I-N-4, 2-amino-6-fluoro-N-(4-(4-isopropylpiperazin-1-yl)pyridin-3-yl)pyrazolo[1,5-a]pyrimidine-3-carboxamide] | +++ (Cisplatin sensitization value of <0.02 μM)
14 | Nc1nn2cc(F)cnc2c1C(=O)Nc1cncc(F)c1C1CCN(C2COC2)CC1 [I-C-13, 2-amino-6-fluoro-N-(5-fluoro-4-(1-(oxetan-3-yl)piperidin-4-yl)pyridin-3-yl)pyrazolo[1,5-a]pyrimidine-3-carboxamide] | ++ (Cisplatin sensitization value>0.02 μM but <0.2 μM)
15 | Nc1nn2cc(F)cnc2c1C(=O)Nc1cnccc1N1CCOCC1 [I-N-141, 2-amino-6-fluoro-N-(4-morpholinopyridin-3-yl)pyrazolo[1,5-a]pyrimidine-3-carboxamide] | +++ (Cisplatin sensitization value of <0.02 μM)
16 | CC1(N2CCN(C(=O)C3CCN(c4c(F)cncc4NC(=O)c4c(N)nn5cc(F)cnc45)CC3)CC2)COC1 [I-G-92, 2-amino-6-fluoro-N-(5-fluoro-4-(4-(4-(3-methyloxetan-3-yl)piperazine-1-carbonyl)piperidin-1-yl)pyridin-3-yl)pyrazolo[1,5-a]pyrimidine-3-carboxamide] | +++ (Cisplatin sensitization value of <0.02 μM)
17 | CS(=O)(=O)N1CCN(c2ccncc2NC(=O)c2c(N)nn3cc(F)cnc23)CC1 [I-N-178, 2-amino-6-fluoro-N-(4-(4-(methylsulfonyl)piperazin-1-yl)pyridin-3-yl)pyrazolo[1,5-a]pyrimidine-3-carboxamide] | +++ (Cisplatin sensitization value of <0.02 μM)
18 | Nc1nn2cc(F)cnc2c1C(=O)Nc1cncc(F)c1N1CCC(C(=O)N2CCC(N3CCCCC3)C2)CC1 (stereo not drawn) [I-G-64, 2-amino-6-fluoro-N-(5-fluoro-4-(4-(3-(piperidin-1-yl)pyrrolidine-1-carbonyl)piperidin-1-yl)pyridin-3-yl)pyrazolo[1,5-a]pyrimidine-3-carboxamide] | +++ (Cisplatin sensitization value of <0.02 μM)
19 | N#CCc1cnc2c(C(=O)Nc3cnccc3N3CCCCC3)c(N)nn2c1 [I-N-84, 2-amino-6-(cyanomethyl)-N-(4-(piperidin-1-yl)pyridin-3-yl)pyrazolo[1,5-a]pyrimidine-3-carboxamide] | +++ (Cisplatin sensitization value of <0.02 μM)
20 | N#CCc1cnc2c(C(=O)Nc3cnccc3N3CCCCCC3)c(N)nn2c1 [I-N-79, 2-amino-N-(4-(azepan-1-yl)pyridin-3-yl)-6-(cyanomethyl)pyrazolo[1,5-a]pyrimidine-3-carboxamide] | ++ (Cisplatin sensitization value>0.02 μM but <0.2 μM)
21 | CN1CCOC(C(=O)N2CCN(c3c(F)cncc3NC(=O)c3c(N)nn4cc(F)cnc34)CC2)C1 (stereo not drawn) [I-N-174, 2-amino-6-fluoro-N-(5-fluoro-4-(4-(4-methylmorpholine-2-carbonyl)piperazin-1-yl)pyridin-3-yl)pyrazolo[1,5-a]pyrimidine-3-carboxamide] | +++ (Cisplatin sensitization value of <0.02 μM)
